Patent publication US8722849B2, “Polypeptides” (Novo Nordisk A/S, priority 2011, dated 2014)
Converted amounts (≈) assume the structure as drawn. Where two headings read alike, the source gives them in different places. Starred links: 1 amine or outer side, 2 acyl side, 3 side chain; linkers in the order of their positions; H or OH if unused. Positions of bridges follow the written chain, without caps; N, C: chain ends. Residues, ends and D or L forms follow the SMILES beside them. *: point of attachment. C20 diacid = O=C(O)CCCCCCCCCCCCCCCCCCC(=O)*; γGlu = O=C(O)[C@H](CCC(=O)[*:2])N[*:1]

Key:
[1] = biological target: T1, human amylin receptor (amylin 3(a) receptor: human calcitonin receptor + RAMP-3) (Homo sapiens, UniProt O60896+P30988); experiment: Assay (II)a functional CRE-luciferase assay, human amylin receptor; type: cell-based; details: Table 2; BHK amylin 3(a)-receptor/CRE-luc cells
T1 construct: expressed in transfected cells; host or cells: BHK570
T1 sequence (P30988 25-474): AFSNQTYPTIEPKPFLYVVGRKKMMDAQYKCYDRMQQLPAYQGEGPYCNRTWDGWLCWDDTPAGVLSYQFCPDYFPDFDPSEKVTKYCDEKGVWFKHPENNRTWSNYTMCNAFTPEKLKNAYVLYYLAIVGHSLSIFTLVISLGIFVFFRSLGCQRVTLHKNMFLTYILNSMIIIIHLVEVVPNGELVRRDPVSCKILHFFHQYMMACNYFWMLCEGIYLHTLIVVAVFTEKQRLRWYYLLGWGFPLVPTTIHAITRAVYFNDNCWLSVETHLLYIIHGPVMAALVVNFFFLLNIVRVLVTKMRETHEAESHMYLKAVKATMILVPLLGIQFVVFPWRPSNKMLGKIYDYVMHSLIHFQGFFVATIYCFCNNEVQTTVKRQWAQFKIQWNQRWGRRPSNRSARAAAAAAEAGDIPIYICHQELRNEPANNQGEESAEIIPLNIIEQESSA
T1 sequence (O60896 24-148 partner): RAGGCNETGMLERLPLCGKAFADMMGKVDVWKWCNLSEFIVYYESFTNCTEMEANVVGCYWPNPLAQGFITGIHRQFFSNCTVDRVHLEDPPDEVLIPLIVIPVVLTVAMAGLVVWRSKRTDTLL

[2] = biological target: T2, human calcitonin receptor (Homo sapiens, UniProt P30988); experiment: Assay (II)a functional CRE-luciferase assay, human calcitonin receptor; type: cell-based; details: Table 7; human calcitonin (CTa) receptor
T2 construct: expressed in transfected cells; host or cells: BHK570
T2 sequence (P30988 25-474): T1 sequence (P30988 25-474)

[3] = biological target: T3, rat amylin 3(a) receptor (rat calcitonin(a) receptor + rat RAMP3) (Rattus norvegicus, UniProt P32214+Q9JJ73); experiment: Assay (II)b functional cAMP FlashPlate assay, rat amylin receptor; type: cell-based; details: Table 11
T3 construct: expressed in transfected cells; host or cells: BHK tk'ts 13
T3 sequence (P32214 25-479 isoform P32214-2 limits assumed): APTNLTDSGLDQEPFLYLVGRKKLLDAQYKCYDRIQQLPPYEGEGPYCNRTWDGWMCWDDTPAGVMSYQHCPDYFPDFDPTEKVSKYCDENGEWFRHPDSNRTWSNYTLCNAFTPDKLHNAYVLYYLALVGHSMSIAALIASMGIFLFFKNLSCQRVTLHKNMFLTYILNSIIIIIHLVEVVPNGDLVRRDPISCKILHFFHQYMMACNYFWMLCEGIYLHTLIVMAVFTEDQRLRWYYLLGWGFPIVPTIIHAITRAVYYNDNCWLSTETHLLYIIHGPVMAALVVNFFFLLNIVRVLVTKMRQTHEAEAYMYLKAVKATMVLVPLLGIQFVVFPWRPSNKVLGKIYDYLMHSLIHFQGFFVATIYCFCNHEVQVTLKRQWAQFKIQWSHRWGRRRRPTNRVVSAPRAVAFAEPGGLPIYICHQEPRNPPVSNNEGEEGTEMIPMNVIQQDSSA
T3 sequence (Q9JJ73 23-147 partner): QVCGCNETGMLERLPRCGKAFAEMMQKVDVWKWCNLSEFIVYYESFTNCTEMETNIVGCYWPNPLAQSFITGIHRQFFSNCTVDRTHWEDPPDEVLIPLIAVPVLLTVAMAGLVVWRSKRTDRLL
From the text: (§1) Assay (II)b—Rat Calcitonin and Rat Amylin Receptor Assays
(§2) Activation of calcitonin and amylin (coexpression of calcitonin receptor and receptor activity modifying proteins (RAMP)) receptors lead to increased intracellular concentrations of cAMP. In order to quantify the cAMP levels in transiently transfected cells the Adenylyl Cyclase Activation FlashPlate® Assay from […] was used. The basic principle of the FlashPlate® Assay is a competition between radioactive and non-radioactive cAMP generated by the cells for a fixed number of binding sites.
(§3) Construction of rat calcitonin(a)—and rat amylin 3(a)-receptor cells.
(§4) BHK tk'ts 13 cells were transiently transfected with either rat calcitonin (a) receptor or amylin 3 (a) receptor (rat calcitonin(a) receptor+ rat RAMP3) using FuGENE® 6 (ROCHE), according to the manufacturers recommendations.
(§5) 24 hours after transient transfection the cells (rat calcitonin(a)—or rat amylin 3(a)—receptor cells) were added (100.000 cells/well) to the 96 well FlashPlates® with samples or standard in FlashPlate stimulation buffer with IBMX and incubated for 30 min. Detection mix was created according to manufacturers protocol and scintillation measured after 3 h of incubation on TopCounter™ (Packard).

[4] = biological target: T4, rat calcitonin (a) receptor (Rattus norvegicus, UniProt P32214); experiment: Assay (II)b functional cAMP FlashPlate assay, rat calcitonin receptor; type: cell-based; details: Table 11; read-out: CTa receptor rat EC50
T4 construct: expressed in transfected cells; host or cells: BHK tk'ts 13
T4 sequence (P32214 25-479 isoform P32214-2 limits assumed): T3 sequence (P32214 25-479 isoform P32214-2 limits assumed)
From the text: as §1, §2, §3, §4, §5

[5] = Assay (IV) determination of solubility; type: physicochemical
Method in brief: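 Polypeptide in water (~500 nmol/ml) mixed 1:1 with 100 mM glycylglycine (pH 3.0–5.0) or bistrispropane (pH 6.0–8.0) buffers. Held 18 hours at room temperature, then centrifuged. Polypeptide remaining in solution quantified by HPLC.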

[6] = bistrispropane buffer, pH 6, pH 6.0, read-out: Solubility pH 6.0
[7] = bistrispropane buffer, pH 6.5, pH 6.5, read-out: Solubility pH 6.5
[8] = bistrispropane buffer, pH 7.5, pH 7.5, read-out: Solubility pH 7.5
[9] = bistrispropane buffer, pH 8, pH 8.0, read-out: Solubility pH 8.0
[10] = glycylglycine buffer, pH 3, pH 3.0, read-out: Solubility pH 3.0
[11] = glycylglycine buffer, pH 4, pH 4.0, 18 hours at room temperature, Table 2, read-out: Solubility pH 4.0
[12] = glycylglycine buffer, pH 4, pH 4.0, read-out: Solubility pH 4.0
[13] = glycylglycine buffer, pH 5, pH 5.0, read-out: Solubility pH 5.0
[14] = bistrispropane buffer, pH 7, pH 7.0, read-out: Solubility pH 7.0

Structure (SMILES) | EC50 [1] [pM] | EC50 [2] [pM] | EC50 [3] [pM] | EC50 [4] [pM] | solubility at 18 h [5, 6] [µM] | solubility at 18 h [5, 7] [µM] | solubility at 18 h [5, 8] [µM] | solubility at 18 h [5, 9] [µM] | solubility at 18 h [5, 10] [µM] | solubility at 18 h [5, 11] [µM] | solubility at 18 h [5, 12] [µM] | solubility at 18 h [5, 13] [µM] | solubility at 18 h ([5]; pH 7.0, read-out: Solubility pH 7.0) [µM] | solubility at 18 h [5, 14] [µM]
CC[C@H](C)[C@H](NC(=O)[C@@H]1CCCN1C(=O)CNC(=O)[C@H](Cc1ccccc1)NC(=O)[C@H](CC(N)=O)NC(=O)[C@H](CC(N)=O)NC(=O)[C@H](CO)NC(=O)[C@H](CO)NC(=O)[C@H](Cc1cnc[nH]1)NC(=O)[C@H](CCCNC(=N)N)NC(=O)[C@H](CC(C)C)NC(=O)[C@H](Cc1ccccc1)NC(=O)[C@H](CCC(=O)O)NC(=O)[C@H](C)NC(=O)[C@H](CC(C)C)NC(=O)[C@H](CCCNC(=N)N)NC(=O)[C@H](CCC(N)=O)NC(=O)[C@@H](NC(=O)[C@H](C)NC(=O)[C@@H]1CSSC[C@H](NC(=O)[C@H](Cc2cnc[nH]2)NC(=O)[C@H](Cc2cnc[nH]2)NC(=O)[C@H](Cc2cnc[nH]2)NC(=O)CC[C@H](NC(=O)CCCCCCCCCCCCCCCCCCC(=O)O)C(=O)O)C(=O)N[C@@H](CC(N)=O)C(=O)N[C@@H]([C@@H](C)O)C(=O)N[C@@H](C)C(=O)N[C@@H]([C@@H](C)O)C(=O)N1)[C@@H](C)O)C(=O)N[C@@H](CC(C)C)C(=O)N1CCC[C@H]1C(=O)N1CCC[C@H]1C(=O)N[C@H](C(=O)N[C@@H](CC(N)=O)C(=O)N[C@H](C(=O)NCC(=O)N[C@@H](CO)C(=O)N[C@@H](CC(N)=O)C(=O)N[C@H](C(=O)N[C@@H](Cc1ccc(O)cc1)C(N)=O)[C@@H](C)O)C(C)C)[C@@H](C)O [Example 12, N-alpha-[(S)-4-Carboxy-4-(19-carboxynonadecanoylamino)butyryl]-His-His-[His1,Glu14,Arg17]-pramlintide] ({C20 diacid-γGlu}-HHHCNTATCATQRLAEFLRHSSNNFGPILPPTNVGSNTY-NH2; disulfide 4-9) | 77.5 | 409 | 82 | 6760 | > 200 | 45 (≈ 214 µg/mL) | 26 (≈ 124 µg/mL) | 69 (≈ 328 µg/mL) | > 200 | > 200 | > 200 | > 200 | 9 (≈ 42.8 µg/mL) | –
CC[C@H](C)[C@H](NC(=O)[C@@H]1CCCN1C(=O)CNC(=O)[C@H](Cc1ccccc1)NC(=O)[C@H](CC(N)=O)NC(=O)[C@H](CC(N)=O)NC(=O)[C@H](CO)NC(=O)[C@H](CO)NC(=O)[C@H](Cc1cnc[nH]1)NC(=O)[C@H](Cc1cnc[nH]1)NC(=O)[C@H](CC(C)C)NC(=O)[C@H](Cc1ccccc1)NC(=O)[C@H](CCC(=O)O)NC(=O)[C@H](C)NC(=O)[C@H](CC(C)C)NC(=O)[C@H](CCCNC(=N)N)NC(=O)[C@H](CCC(N)=O)NC(=O)[C@@H](NC(=O)[C@H](C)NC(=O)[C@@H]1CSSC[C@H](NC(=O)[C@H](Cc2cnc[nH]2)NC(=O)[C@H](Cc2cnc[nH]2)NC(=O)CC[C@H](NC(=O)CCCCCCCCCCCCCCCCCCC(=O)O)C(=O)O)C(=O)N[C@@H](CC(N)=O)C(=O)N[C@@H]([C@@H](C)O)C(=O)N[C@@H](C)C(=O)N[C@@H]([C@@H](C)O)C(=O)N1)[C@@H](C)O)C(=O)N[C@@H](CC(C)C)C(=O)N1CCC[C@H]1C(=O)N1CCC[C@H]1C(=O)N[C@H](C(=O)N[C@@H](CC(N)=O)C(=O)N[C@H](C(=O)NCC(=O)N[C@@H](CO)C(=O)N[C@@H](CC(N)=O)C(=O)N[C@H](C(=O)N[C@@H](Cc1ccc(O)cc1)C(N)=O)[C@@H](C)O)C(C)C)[C@@H](C)O [Example 17, N-alpha-[(S)-4-Carboxy-4-(19-carboxynonadecanoylamino)butyryl]-His-[His1,Glu14,His17]-pramlintide] ({C20 diacid-γGlu}-HHCNTATCATQRLAEFLHHSSNNFGPILPPTNVGSNTY-NH2; disulfide 3-8) | 111 | 166 | 147 | 221 | 160 (≈ 736 µg/mL) | 66 (≈ 304 µg/mL) | > 200 | > 200 | > 200 | > 200 | > 200 | > 200 | – | 88 (≈ 405 µg/mL)
CC(C)C[C@H](NC(=O)[C@H](CCCNC(=N)N)NC(=O)[C@H](CCC(N)=O)NC(=O)[C@@H](NC(=O)[C@H](C)NC(=O)[C@@H]1CSSC[C@H](NC(=O)[C@H](Cc2c[nH]cn2)NC(=O)[C@H](Cc2c[nH]cn2)NC(=O)[C@H](Cc2c[nH]cn2)NC(=O)CC[C@H](NC(=O)CCCCCCCCCCCCCCCCCCC(=O)O)C(=O)O)C(=O)N[C@@H](CC(N)=O)C(=O)N[C@@H]([C@@H](C)O)C(=O)N[C@@H](C)C(=O)N[C@@H]([C@@H](C)O)C(=O)N1)[C@@H](C)O)C(=O)N[C@@H](C)C(=O)N[C@@H](CCC(=O)O)C(=O)N[C@@H](Cc1ccccc1)C(=O)N[C@@H](CC(C)C)C(=O)N[C@@H](Cc1c[nH]cn1)C(=O)N[C@@H](Cc1c[nH]cn1)C(=O)N[C@@H](CO)C(=O)N[C@@H](CO)C(=O)N[C@@H](CC(N)=O)C(=O)N[C@@H](CC(N)=O)C(=O)N[C@@H](Cc1ccccc1)C(=O)NCC(=O)N[C@@H](C)C(=O)N1CCC[C@H]1C(=O)N[C@@H](CC(C)C)C(=O)N[C@@H](CO)C(=O)N[C@@H](CO)C(=O)N[C@H](C(=O)N[C@@H](CC(N)=O)C(=O)N[C@H](C(=O)NCC(=O)N[C@@H](CO)C(=O)N[C@@H](CC(N)=O)C(=O)N[C@H](C(=O)N[C@@H](Cc1ccc(O)cc1)C(N)=O)[C@@H](C)O)C(C)C)[C@@H](C)O [Example 19, N-alpha-[(S)-4-Carboxy-4-(19-carboxynonadecanoylamino)butyryl]-His-His-[His1,Glu14,His17,Ala25,Pro26,Ser28,Ser29]-pramlintide] ({C20 diacid-γGlu}-HHHCNTATCATQRLAEFLHHSSNNFGAPLSSTNVGSNTY-NH2; disulfide 4-9 (inferred); C-terminus assumed) | 105 | 310 | 132 | 824 | 175 (≈ 819 µg/mL) | 35 (≈ 164 µg/mL) | 61 (≈ 285 µg/mL) | 158 (≈ 739 µg/mL) | > 200 | > 200 | > 200 | 155 (≈ 725 µg/mL) | – | 6 (≈ 28.1 µg/mL)
